Experimental data reported in PubChem BioAssay AID1963973 (Molecular Pharmacology Branch, DTP, NCI, 2024).
Values belong to the compound of their own block, whether it stands above or below them.

Test system: 883617-216-R-J1-PDC tumor spheroids, viability
Assay: Anticancer human tumor 883617-216-R-J1-PDC patient-derived bladder carcinoma cell line growth inhibition [PI3K]
Settings: spheroids with HUVEC and MSC; for viability, T/C: stronger effect = lower value
Description: Combinatorial screen of targeted agents with the PI3K inhibitors inavolisib, alpelisib, duvelisib, and copanlisib in multi-cell type tumor spheroids
A high-throughput screen of multi-cell type tumor spheroids was designed to identify active combinations of targeted small molecules and PI3K pathway inhibitors. Complex spheroids include a stromal component modeled by human endothelial cells (HUVEC) and fibroblasts modeled by human mesenchymal stem cells (MSCs). The concentration ranges selected for each drug and investigational agent were based upon clinically achievable concentrations if the clinical Cmax of the agent was known.
Compounds. The drugs and investigational agents: inavolisib (NSC800729), alpelisib (NSC765974), duvelisib (NSC772469), copanlisib (NSC816437), ipatasertib (NSC767898), afuresertib (NSC778305), talazoparib (NSC767125), sapanisertib (NSC764658), selumetinib (NSC741078), tovorafenib (DAY101, NSC766906), vemurafenib (NSC761431), ravoxertinib (NSC781343), sotorasib (NSC818433), MRTX1133 (NSC 836407), abemaciclib (NSC 768073), palbociclib (NSC758247), venetoclax (NSC 766270), SY5609 (NSC837396), enzalutamide (NSC755605), and darolutamide (NSC825331), were obtained from the National Cancer Institute (NCI) Developmental Therapeutics Program Chemical Repository. The FDA-approved anticancer drug set is available from the NCI Developmental Therapeutics Program. […] The stock solutions were prepared in dimethyl sulfoxide (DMSO, Sigma-Aldrich, St. Louis, MO, cat. D2650) at 800-fold the tested concentration and stored at -70 degrees C prior to their use. All drugs and investigational agents were tested over a range starting from a high concentration at or near the clinical Cmax and decreasing in half-log increments. If the clinical Cmax for an agent had not been determined, the highest concentration tested was 10 microM.
Cell Culture. All cells were maintained in an incubator at 37 degrees C and 5% CO2 with 95% humidity. The PDC lines were cultured according to standard operating procedures established by the NCI PDMR (https://pdmr.cancer.gov/sops/default.htm). All PDCs were thawed and cultured in Matrigel-coated flasks prepared with a working solution of 1X Ham's F-12 nutrient mix, without supplementation (Invitrogen, Waltham, MA, cat. 11765054), 100 U/mL penicillin-streptomycin (Invitrogen, cat. 15140122), and 2.5% Matrigel (Corning Inc., Corning, NY, cat. 354248) for the first three passages. The 354836-022-R-J1-PDC, 475296-252-R-J1-PDC, and 997726-040-R-J2-PDC lines were cultured in 6A media, which includes advanced DMEM/F-12 (Thermo Fisher Scientific, cat. 12634028), 10 mM HEPES (Thermo Fisher Scientific, cat. 15630080), 1X GlutaMAX supplement (Thermo Fisher Scientific, cat. 35050061), 0.1 mg/mL primocin (InvivoGen, San Diego, CA, cat. ant-pm-2), 10% defined fetal bovine serum, heat inactivated (HyClone Laboratories Inc., Logan, UT, cat. SH30070.03HI), 50% L-WRN conditioned media (ATCC, cat. CRL-3276), 1.25 mM N-Acetyl-L-cysteine (Sigma-Aldrich, cat. A9165), 10 mM nicotinamide (Sigma-Aldrich, cat. N0636), 1X B-27 supplement (Thermo Fisher Scientific, cat. 17504044), 1X N-2 supplement (Thermo Fisher Scientific, cat. 17502048), and 10 microM Y-27632 dihydrochloride (Tocris Bioscience, Bristol, United Kingdom, cat. 1254). The 624824-186-R-J2-PDC line was cultured in 6C/Colon 1B media, which includes all 6A media components plus 50 ng/mL human EGF recombinant protein (Thermo Fisher Scientific, cat. PHG0311). […]

[1] = curve of first compound, second compound 0.00316 µM
[2] = curve of first compound, second compound 0.01 µM
[3] = curve of first compound, second compound 0.0316 µM
[4] = curve of first compound, second compound 0.1 µM
[5] = curve of first compound, second compound 0.316 µM
[6] = curve of first compound, second compound 1 µM
[7] = second compound 0.00316 µM, first compound 0.0316 µM
[8] = second compound 0.00316 µM, first compound 0.1 µM
[9] = second compound 0.00316 µM, first compound 0.316 µM
[10] = second compound 0.00316 µM, first compound 1 µM
[11] = second compound 0.01 µM, first compound 0.0316 µM
[12] = second compound 0.01 µM, first compound 0.1 µM
[13] = second compound 0.01 µM, first compound 0.316 µM
[14] = second compound 0.01 µM, first compound 1 µM
[15] = second compound 0.0316 µM, first compound 0.0316 µM
[16] = second compound 0.0316 µM, first compound 0.1 µM
[17] = second compound 0.0316 µM, first compound 0.316 µM
[18] = second compound 0.0316 µM, first compound 1 µM
[19] = second compound 0.1 µM, first compound 0.0316 µM
[20] = second compound 0.1 µM, first compound 0.1 µM
[21] = second compound 0.1 µM, first compound 0.316 µM
[22] = second compound 0.1 µM, first compound 1 µM
[23] = second compound 0.316 µM, first compound 0.0316 µM
[24] = second compound 0.316 µM, first compound 0.1 µM
[25] = second compound 0.316 µM, first compound 0.316 µM
[26] = second compound 0.316 µM, first compound 1 µM
[27] = second compound 1 µM, first compound 0.0316 µM
[28] = second compound 1 µM, first compound 0.1 µM
[29] = second compound 1 µM, first compound 0.316 µM
[30] = second compound 1 µM, first compound 1 µM
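Also: spheroids exposed to agents for 7 days before the viability read.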

IC50 [1]: < 31.6 nM
IC50 [2]: < 31.6 nM
IC50 [3]: < 31.6 nM
IC50 [4]: < 31.6 nM
IC50 [5]: < 31.6 nM
IC50 [6]: < 31.6 nM
SMILES: CC1(C)CCC(Nc2ncc(C(F)(F)F)c(-c3c[nH]c4c(P(C)(C)=O)c(C#N)ccc34)n2)CN1 (stereo unspecified) + CC(Nc1ccc2c(c1)OCCn1cc(N3C(=O)OCC3C(F)F)nc1-2)C(N)=O
viability, T/C [7]: 31.5%
viability, T/C [8]: 17.9%
viability, T/C [9]: 17.6%
viability, T/C [10]: 14%
viability, T/C (second compound 0.00316 µM, first compound 3.16 µM): 6.49%
viability, T/C (second compound 0.00316 µM, first compound 10 µM): 0.36%
viability, T/C [11]: 30.4%
viability, T/C [12]: 23.2%
viability, T/C [13]: 19.7%
viability, T/C [14]: 18.7%
viability, T/C (second compound 0.01 µM, first compound 3.16 µM): 6.21%
viability, T/C (second compound 0.01 µM, first compound 10 µM): 0.37%
viability, T/C [15]: 30.2%
viability, T/C [16]: 18.7%
viability, T/C [17]: 21.8%
viability, T/C [18]: 14.3%
viability, T/C (second compound 0.0316 µM, first compound 3.16 µM): 4.74%
viability, T/C (second compound 0.0316 µM, first compound 10 µM): 0.17%
viability, T/C [19]: 25.5%
viability, T/C [20]: 17.6%
viability, T/C [21]: 19.1%
viability, T/C [22]: 12.2%
viability, T/C (second compound 0.1 µM, first compound 3.16 µM): 4.58%
viability, T/C (second compound 0.1 µM, first compound 10 µM): 0.1%
viability, T/C [23]: 21.6%
viability, T/C [24]: 15.4%
viability, T/C [25]: 14.2%
viability, T/C [26]: 10.8%
viability, T/C (second compound 0.316 µM, first compound 3.16 µM): 3%
viability, T/C (second compound 0.316 µM, first compound 10 µM): 0.12%
viability, T/C [27]: 13.9%
viability, T/C [28]: 10.4%
viability, T/C [29]: 9.92%
viability, T/C [30]: 12.2%
viability, T/C (second compound 1 µM, first compound 3.16 µM): 2.77%
viability, T/C (second compound 1 µM, first compound 10 µM): 0.33%

IC50 (compound alone, run of 04/24/2023): 316 nM [middle of 8 runs]
SMILES: Cc1nc(NC(=O)N2CCCC2C(N)=O)sc1-c1ccnc(C(C)(C)C(F)(F)F)c1 (stereo unspecified)
viability, T/C (compound 0.0316 µM): 92.1% [middle of 8 runs]
viability, T/C (compound 0.1 µM): 74.7% [middle of 8 runs]
viability, T/C (compound 0.316 µM): 49.1% [middle of 8 runs]
viability, T/C (compound 1 µM): 28.3% [middle of 8 runs]
viability, T/C (compound 3.16 µM): 12.5% [middle of 8 runs]
viability, T/C (compound 10 µM): 7.52% [middle of 8 runs]

IC50 [1]: 203 nM
IC50 [2]: 166 nM
IC50 [3]: 122 nM
IC50 [4]: < 3.16 nM
IC50 [5]: < 3.16 nM
IC50 [6]: < 3.16 nM
SMILES: CCN1CCN(Cc2ccc(Nc3ncc(F)c(-c4cc(F)c5nc(C)n(C(C)C)c5c4)n3)nc2)CC1 + CC(Nc1ccc2c(c1)OCCn1cc(N3C(=O)OCC3C(F)F)nc1-2)C(N)=O
viability, T/C (second compound 0.00316 µM, first compound 0.00316 µM): 86%
viability, T/C (second compound 0.00316 µM, first compound 0.01 µM): 80.7%
viability, T/C [7]: 59.5%
viability, T/C [8]: 58.4%
viability, T/C [9]: 46.2%
viability, T/C [10]: 43.8%
viability, T/C (second compound 0.01 µM, first compound 0.00316 µM): 73.8%
viability, T/C (second compound 0.01 µM, first compound 0.01 µM): 63.2%
viability, T/C [11]: 59.4%
viability, T/C [12]: 51.1%
viability, T/C [13]: 47.1%
viability, T/C [14]: 45%
viability, T/C (second compound 0.0316 µM, first compound 0.00316 µM): 57%
viability, T/C (second compound 0.0316 µM, first compound 0.01 µM): 55.4%
viability, T/C [15]: 52.6%
viability, T/C [16]: 52.6%
viability, T/C [17]: 37.5%
viability, T/C [18]: 36.3%
viability, T/C (second compound 0.1 µM, first compound 0.00316 µM): 49.3%
viability, T/C (second compound 0.1 µM, first compound 0.01 µM): 34.4%
viability, T/C [19]: 30.7%
viability, T/C [20]: 31%
viability, T/C [21]: 30.9%
viability, T/C [22]: 24.4%
viability, T/C (second compound 0.316 µM, first compound 0.00316 µM): 26.3%
viability, T/C (second compound 0.316 µM, first compound 0.01 µM): 26.8%
viability, T/C [23]: 18%
viability, T/C [24]: 19.9%
viability, T/C [25]: 15.4%
viability, T/C [26]: 17%
viability, T/C (second compound 1 µM, first compound 0.00316 µM): 13.8%
viability, T/C (second compound 1 µM, first compound 0.01 µM): 14%
viability, T/C [27]: 11.2%
viability, T/C [28]: 11.2%
viability, T/C [29]: 11.5%
viability, T/C [30]: 11.1%
